No end group written: not given here.
Experiments:
human erythrocytes = details: cited from earlier work
Protocol: Peptide 6.2 (P6.2) is a de novo designed antimicrobial peptide, with an amphipathic alfa helical structure. […] These findings are also in accordance with the previous results obtained for toxicity by hemolytic activity (hemolysis below 5% until 128 µg/mL).

P. aeruginosa M13513 [1] = experiment: Inhibition of biofilm formation (crystal violet); type: cell-based, Pseudomonas aeruginosa; details: sub-MIC concentrations (1/8 to 1/2 of the MIC), 24 h
Protocol: The assessment of biofilm inhibition was carried out using 96-well flat-bottom polystyrene plates. Antimicrobial agents were diluted in Mueller–Hinton broth through a two-fold serial dilution and subsequently inoculated with a fresh bacterial culture to obtain a final concentration of 5 × 10^5 CFU/mL, with a total well volume of 100 µL. The plates were then incubated at 37 °C for 24 h. Bacteria cultured without the peptide served as the control. To evaluate biofilm formation following peptide exposure, the supernatant was carefully removed, and the wells were washed twice with 100 µL of saline solution to eliminate any non-adherent cells. The remaining biofilm was fixed by adding 100 µL of methanol for 15 min, followed by staining with 100 µL of 1% (v/v) crystal violet ( Sigma-Aldrich, Massachusetts, USA) for 5 min. After staining, the excess dye was discarded, and the wells were rinsed twice with 200 µL of distilled water before allowing the plate to dry at 37 °C for 30 min. Finally, 100 µL of 33% acetic acid was added to each well, and the samples were homogenized by gentle agitation. The absorbance was then measured at 595 nm using a microplate reader (RT2100, Rayto Life and Analytical Sciences Co., Ltd., Shenzhen, China).

[2] = tested on: P. aeruginosa strain PA01; details: sub-MIC concentrations, reference strain PAO1; cited from earlier work
Source text: Biofilms are complex bacterial communities characterized by extensive intercellular interactions. Biofilm-associated bacteria, including P. aeruginosa, are commonly implicated in chronic infections that can persist for years. As such, managing biofilm-associated infections has become a critical focus in antimicrobial therapy, given their resistance to conventional antibiotic concentrations.

P. aeruginosa M13513 [3] = experiment: Synergy by time-kill kinetic assay; type: cell-based, Pseudomonas aeruginosa; details: P6.2 and meropenem both at 0.5× MIC, synergy = ≥2-log10 decrease in CFU/mL vs most active constituent after 24 h
Protocol: The possible synergistic interaction between P6.2 and meropenem was assessed through time–kill kinetic assays. These experiments were conducted in 50 mL tubes with a final volume of 10 mL. A log-phase culture of P. aeruginosa M13513 was obtained and subsequently diluted in CAMHB to achieve a final bacterial concentration of 5 × 10^6 CFU/mL. Both P6.2 and meropenem were tested individually and in combination at 0.5× MIC (minimum inhibitory concentration). Untreated bacterial cultures served as controls.
The samples were incubated at 37 °C with constant shaking for 24 h. Aliquots were collected at 0, 1, 2, 3, 4, 8, and 20 h, serially diluted in saline, and plated in triplicate on LB agar using three drops of 50 µL per dilution. The plates were incubated at 37 °C for 24 h to determine colony-forming unit (CFU) counts.
The results were plotted as Log CFU/mL versus time (h). […] A bactericidal effect was determined when the initial inoculum was reduced by three or more logarithmic units.

mice erythrocytes = details: cited from earlier work
Source text: (§1) Peptide 6.2 (P6.2) is a de novo designed antimicrobial peptide, with an amphipathic alfa helical structure.

[4] = affinity towards eukaryotic and prokaryotic membranes; cited from earlier work
Source text: as §1

P. aeruginosa M13513 [5] = tested on: P. aeruginosa M13513
Protocol: To analyze the stability of the molecule, the peptide was exposed to different temperatures for varying durations. The conditions tested involved incubation at 37 °C for 24 h, at 60 °C for 2 h, and at 100 °C for 15 min. Each condition was set up in a microtube with the peptide dissolved in sterile deionized water. As a control, the peptide was dissolved immediately before testing without temperature incubation. Afterward, the broth microdilution assay was conducted to assess its antimicrobial effectiveness. Additionally, the stability of the peptide in serum was examined. Three microtubes were prepared, each containing sterile deionized water with FCBS (fetal calf bovine serum) 25% (v/v) and the antimicrobial peptide. Two of these samples were incubated at 37 °C for 24 h or 2 h, while the third sample was prepared just before testing without any temperature incubation. As controls, serum alone and peptide without serum were used. The antimicrobial activity was subsequently evaluated through the broth microdilution assay. In order to assess the stability of the AMP, P6.2 was incubated at different temperature conditions or with FBS (fetal bovine serum) for different time periods. The temperature exposures were overnight (ON) at 37 °C, 120 min at 60 °C, and 15 min at 100 °C. […]

P. aeruginosa M13513 [6] = experiment: Bactericidal effect by killing kinetics (time-kill curve); type: cell-based, Pseudomonas aeruginosa; details: killing kinetics at 64 µg/mL of P6.2
Protocol: The bactericidal activity was determined according to the CLSI recommendations. In short, the bactericidal activity of the antimicrobial agents on the microorganisms was evaluated using a time–kill curve. The Minimal Bactericidal Concentration (MBC) is the lowest drug concentration required to eliminate 99.9% of viable organisms (a 3-log reduction in CFU/mL compared to the control) after a set incubation period under defined conditions. This is the most common method for estimating bactericidal activity.
The killing kinetics of an antimicrobial agent allow us to observe how the agent exerts its activity as a function of time, determining viable cells by counting colony-forming units at different time points. Normally, for commonly used antibiotics, this measurement is carried out over a 24-h period, since they reach their maximum activity during this period. However, for AMPs, these times are much shorter; in fact, these antimicrobials exert their maximum activity in just hours or minutes. For this reason, killing kinetics at MIC was carried out by measuring viable bacteria at short intervals over a period of three hours.

P. aeruginosa M13513 [7] = experiment: Peptide stability at different temperatures, read out by broth microdilution MIC; type: physicochemical, Pseudomonas aeruginosa; design: unit not given beside the values; details: peptide in sterile deionized water, then broth microdilution vs P. aeruginosa M13513
Protocol: To analyze the stability of the molecule, the peptide was exposed to different temperatures for varying durations. The conditions tested involved incubation at 37 °C for 24 h, at 60 °C for 2 h, and at 100 °C for 15 min. Each condition was set up in a microtube with the peptide dissolved in sterile deionized water. As a control, the peptide was dissolved immediately before testing without temperature incubation. Afterward, the broth microdilution assay was conducted to assess its antimicrobial effectiveness. Additionally, the stability of the peptide in serum was examined. Three microtubes were prepared, each containing sterile deionized water with FCBS (fetal calf bovine serum) 25% (v/v) and the antimicrobial peptide. Two of these samples were incubated at 37 °C for 24 h or 2 h, while the third sample was prepared just before testing without any temperature incubation. As controls, serum alone and peptide without serum were used. The antimicrobial activity was subsequently evaluated through the broth microdilution assay. In order to assess the stability of the AMP, P6.2 was incubated at different temperature conditions or with FBS (fetal bovine serum) for different time periods. The temperature exposures were overnight (ON) at 37 °C, 120 min at 60 °C, and 15 min at 100 °C. P6.2 was incubated with 25% FBS at 37 °C for 2 and 24 h before the experiment or directly at the moment of the experiment. Then, a microdilution assay was performed to test the antimicrobial activity.

Substance: GLLRKWGKKWKEFLRRVWK-NH2 [Peptide P6.2]
- erythrocytes lysis (human erythrocytes): less than 10%
- biofilm inhibitory activity (P. aeruginosa M13513 [1]): did not show anti-biofilm activity
- anti-biofilm activity [2]: did not display anti-biofilm activity
- interaction with meropenem (P. aeruginosa M13513 [3]): synergism
- erythrocytes lysis (mice erythrocytes): less than 10%
- membrane selectivity [4]: selectivity for bacterial membranes
- reduction of antimicrobial activity after serum incubation (P. aeruginosa M13513 [5]): two-fold dilution
- time to 99.9% reduction in viable bacteria (bactericidal effect) (P. aeruginosa M13513 [6]): less than 45 min
- MIC after temperature exposure (P. aeruginosa M13513 [7]; 37 °C ON (24 h)): 32/64
- MIC after temperature exposure (P. aeruginosa M13513 [7]; 60 °C 120 min): 32/64
- MIC after temperature exposure (P. aeruginosa M13513 [7]; 100 °C 15 min): 32/64
